According to EP4813989A1, “CRYSTAL, PHARMACEUTICAL COMPOSITION, PREPARATION METHOD THEREFOR, AND USE THEREOF” (TYK Medicines, Inc., priority 2023, dated 2025):

How the values were obtained:
[1] = Solid form stability on standing (XRD/PLM); assay type: physicochemical
Text: The resulting solid sample was subjected to a corresponding characterization test. An XRD pattern of the sample can be seen in FIG. 8.
A crystal form E sample was obtained by suspending and stirring the amorphous sample prepared in Example 2 in a 1,4-dioxane/n-heptane solvent system at room temperature. XRD results of the sample can be seen in FIG. 9. […] On this basis, it was inferred that the crystal form E was a metastable crystal form.
XRD results of the sample can be seen in FIG. 17.
XRD results of the sample can be seen in FIG. 20. TGA/DSC results can be seen in FIG. 21. […] An ^1H NMR spectrum of the crystal form D was obtained by a test in DMSO-d6, and no obvious solvent residue was observed. […] Based on nuclear magnetic resonance data and heating test results of the sample, it was inferred that the crystal form D was a hydrate crystal form.

[2] = High-temperature test, related substances by HPLC; assay type: physicochemical; details: for Increase of impurity RRT0.66 content / Increase of impurity RRT1.02 content / Increase of impurity RRT1.08 content / Increase of total impurities / Impurity content RRT0.55 / Impurity content RRT0.66 / Impurity content RRT0.71 / Impurity content RRT0.94 / Impurity content RRT1.02 / Impurity content RRT1.06 / Impurity content RRT1.08 / Impurity content RRT1.15 / Total impurities: 50°C±2°C; for Impurity content RRT0.55 / Impurity content RRT0.66 / Impurity content RRT0.71 / Impurity content RRT0.94 / Impurity content RRT1.02 / Impurity content RRT1.06 / Impurity content RRT1.08 / Impurity content RRT1.15 / Total impurities: open
Description: An investigation method for the high-temperature test can be seen in Table 11 below.
Results of related substances in each crystal form under the high-temperature condition (50°C±2°C) can be seen in Table 15.
HPLC detection results of related substances under the high-temperature condition: Table 15

C[C@@H](Nc1ccn2ncc(C3=NOC(C)(C)N3)c2n1)c1cc(F)cc(F)c1F [amorphous form]
Solid form stability ([1]; ambient conditions (room temperature, >20%RH), overnight plus two days): unstable under ambient conditions

C[C@@H](Nc1ccn2ncc(C3=NOC(C)(C)N3)c2n1)c1cc(F)cc(F)c1F [crystal form A]
Increase of impurity RRT0.66 content ([2]; 32 days): ≤ 0.02%
Increase of impurity RRT1.02 content ([2]; 32 days): no obvious change
Increase of impurity RRT1.08 content ([2]; 32 days): 0.05%
Increase of total impurities ([2]; 32 days): 0.16%
Impurity content RRT0.55 ([2]; 0 day): 0.03%
Impurity content RRT0.66 ([2]; 0 day): 0.18%
Impurity content RRT0.71 ([2]; 0 day): 0.15%
Impurity content RRT0.94 ([2]; 0 day): 0.04%
Impurity content RRT1.02 ([2]; 0 day): 0.28%
Impurity content RRT1.06 ([2]; 0 day): 0.07%
Impurity content RRT1.08 ([2]; 0 day): 0.16%
Impurity content RRT1.15 ([2]; 0 day): 0.03%
Total impurities ([2]; 0 day): 0.95%
Impurity content RRT0.55 ([2]; 5 days): 0.03%
Impurity content RRT0.66 ([2]; 5 days): 0.19%
Impurity content RRT0.71 ([2]; 5 days): 0.16%
Impurity content RRT0.94 ([2]; 5 days): 0.04%
Impurity content RRT1.02 ([2]; 5 days): 0.31%
Impurity content RRT1.06 ([2]; 5 days): 0.08%
Impurity content RRT1.08 ([2]; 5 days): 0.19%
Impurity content RRT1.15 ([2]; 5 days): 0.03%
Total impurities ([2]; 5 days): 1.03%
Impurity content RRT0.55 ([2]; 11 days): 0.03%
Impurity content RRT0.66 ([2]; 11 days): 0.19%
Impurity content RRT0.71 ([2]; 11 days): 0.16%
Impurity content RRT0.94 ([2]; 11 days): 0.03%
Impurity content RRT1.02 ([2]; 11 days): 0.30%
Impurity content RRT1.06 ([2]; 11 days): 0.08%
Impurity content RRT1.08 ([2]; 11 days): 0.22%
Impurity content RRT1.15 ([2]; 11 days): 0.03%
Total impurities ([2]; 11 days): 1.04%
Impurity content RRT0.55 ([2]; 32 days): 0.05%
Impurity content RRT0.66 ([2]; 32 days): 0.20%
Impurity content RRT0.71 ([2]; 32 days): 0.17%
Impurity content RRT0.94 ([2]; 32 days): 0.05%
Impurity content RRT1.02 ([2]; 32 days): 0.30%
Impurity content RRT1.06 ([2]; 32 days): 0.08%
Impurity content RRT1.08 ([2]; 32 days): 0.21%
Impurity content RRT1.15 ([2]; 32 days): 0.05%
Total impurities ([2]; 32 days): 1.11%
Overall stability (conclusion) ([2]; compared with crystal form E and amorphous form, all four stress tests): the most stable crystal form

C[C@@H](Nc1ccn2ncc(C3=NOC(C)(C)N3)c2n1)c1cc(F)cc(F)c1F [crystal form E]
Increase of impurity RRT0.66 content ([2]; 32 days): 0.05%
Increase of impurity RRT1.02 content ([2]; 32 days): 0.19%
Increase of impurity RRT1.08 content ([2]; 32 days): 0.23%
Increase of total impurities ([2]; 32 days): 0.51%
Impurity content RRT0.55 ([2]; 0 day): 0.04%
Impurity content RRT0.66 ([2]; 0 day): 0.21%
Impurity content RRT0.71 ([2]; 0 day): 0.14%
Impurity content RRT0.94 ([2]; 0 day): 0.03%
Impurity content RRT1.02 ([2]; 0 day): 0.21%
Impurity content RRT1.06 ([2]; 0 day): 0.07%
Impurity content RRT1.08 ([2]; 0 day): 0.17%
Impurity content RRT1.15 ([2]; 0 day): 0.03%
Total impurities ([2]; 0 day): 0.89%
Impurity content RRT0.55 ([2]; 5 days): 0.03%
Impurity content RRT0.66 ([2]; 5 days): 0.22%
Impurity content RRT0.71 ([2]; 5 days): 0.15%
Impurity content RRT0.94 ([2]; 5 days): 0.03%
Impurity content RRT1.02 ([2]; 5 days): 0.27%
Impurity content RRT1.06 ([2]; 5 days): 0.05%
Impurity content RRT1.08 ([2]; 5 days): 0.24%
Impurity content RRT1.15 ([2]; 5 days): 0.03%
Total impurities ([2]; 5 days): 1.03%
Impurity content RRT0.55 ([2]; 11 days): 0.04%
Impurity content RRT0.66 ([2]; 11 days): 0.22%
Impurity content RRT0.71 ([2]; 11 days): 0.13%
Impurity content RRT0.94 ([2]; 11 days): 0.03%
Impurity content RRT1.02 ([2]; 11 days): 0.30%
Impurity content RRT1.06 ([2]; 11 days): 0.06%
Impurity content RRT1.08 ([2]; 11 days): 0.29%
Impurity content RRT1.15 ([2]; 11 days): 0.03%
Total impurities ([2]; 11 days): 1.10%
Impurity content RRT0.55 ([2]; 32 days): 0.04%
Impurity content RRT0.66 ([2]; 32 days): 0.26%
Impurity content RRT0.71 ([2]; 32 days): 0.14%
Impurity content RRT0.94 ([2]; 32 days): 0.05%
Impurity content RRT1.02 ([2]; 32 days): 0.40%
Impurity content RRT1.06 ([2]; 32 days): 0.05%
Impurity content RRT1.08 ([2]; 32 days): 0.40%
Impurity content RRT1.15 ([2]; 32 days): 0.05%
Total impurities ([2]; 32 days): 1.40%
Solid form stability ([1]; air-dried, open storage at room temperature, approximately 1 day): transformed into the crystal form A
